Source: US20120178915A1, “PYRIMIDINE DERIVATIVES AND ANALOGS, PREPARATION METHOD AND USE THEREOF” (priority 2009, published 2012)
In brackets after ≈: the same amount, converted by molar mass. Read-outs that look alike come from different tables or passages of the source.

Columns and labels:
[1] = tested on: Streptococcus pneumoniae 6303 (PRSP); test: microbe, parasite or virus in culture; type: cell-based; details: 24 h, read-out: Minimum Inhibitory Concentration, MIC
Gram-positive Bacteria = type: cell-based; details: Enterococcus faecalis (VRE), Staphylococcus aureus (MRSA), Streptococcus pneumoniae 6303 (PRSP); Bacillus cereus, Bacillus subtilis, Enterococcus faecalis, Staphylococcus aureus, Streptococcus pneumoniae, Streptococcus agalactiae B and streptococci 4
[2] = tested on: Enterococcus faecalis 583 (VRE); test: microbe, parasite or virus in culture; type: cell-based; details: 24 h, read-out: Minimum Inhibitory Concentration, MIC
MIC broth microdilution = type: cell-based; details: Microorganism 33, Dermatophytosis; 37° C., 24 h; read-out: Minimum Inhibitory Concentration, MIC
[3] = tested on: Enterococcus faecalis 51299; test: microbe, parasite or virus in culture; type: cell-based; details: Enterococcus faecalis, 51299, 24 h, read-out: Minimum Inhibitory Concentration, MIC
[4] = tested on: Staphylococcus aureus 704 (MRSA); test: microbe, parasite or virus in culture; type: cell-based; details: 24 h, read-out: Minimum Inhibitory Concentration, MIC
Oral candidiasis = test: MIC broth microdilution; type: cell-based; details: Microorganism 32, Oral candidiasis; 37° C., 24 h; read-out: Minimum Inhibitory Concentration, MIC
[5] = tested on: Enterococcus faecalis 19433; test: microbe, parasite or virus in culture; type: cell-based; details: 37° C., 24 h, read-out: Minimum Inhibitory Concentration, MIC
Pyogenic Streptococcus = test: microbe, parasite or virus in culture; type: cell-based; details: 37° C., 24 h, read-out: Minimum Inhibitory Concentration, MIC
[6] = tested on: Streptococcus pneumoniae 10351; test: microbe, parasite or virus in culture; type: cell-based; details: 37° C., 24 h, read-out: Minimum Inhibitory Concentration, MIC
Streptococcus 10342 = test: MIC broth microdilution; type: cell-based; details: 37° C., 24 h, read-out: Minimum Inhibitory Concentration, MIC
[7] = tested on: Staphylococcus aureus 705 (MRSA); test: microbe, parasite or virus in culture; type: cell-based; details: 24 h, read-out: Minimum Inhibitory Concentration, MIC
[8] = tested on: Enterococcus fecal F631 (VRE); test: organism not typed; type: cell-based; details: 24 h, read-out: Minimum Inhibitory Concentration, MIC
[9] = tested on: Corynebacterium diphtheriae; test: microbe, parasite or virus in culture; type: cell-based; details: 37° C., 24 h, read-out: Minimum Inhibitory Concentration, MIC
[10] = tested on: Staphylococcus aureus 43300 (MRSA); test: microbe, parasite or virus in culture; type: cell-based; details: 24 h, read-out: Minimum Inhibitory Concentration, MIC
Bacillus subtilis 168 = test: microbe, parasite or virus in culture; type: cell-based; details: 37° C., 24 h, read-out: Minimum Inhibitory Concentration, MIC
[11] = tested on: Staphylococcus aureus 29231; test: microbe, parasite or virus in culture; type: cell-based; details: 37° C., 24 h, read-out: Minimum Inhibitory Concentration, MIC
Bacillus cereus 246 = test: microbe, parasite or virus in culture; type: cell-based; details: 37° C., 24 h, read-out: Minimum Inhibitory Concentration, MIC
[12] = tested on: Streptococcus pneumoniae 6301; test: microbe, parasite or virus in culture; type: cell-based; details: 37° C., 24 h, read-out: Minimum Inhibitory Concentration, MIC
Bacillus cereus 2 = test: microbe, parasite or virus in culture; type: cell-based; details: 37° C., 24 h, read-out: Minimum Inhibitory Concentration, MIC
[13] = tested on: Streptococcus pneumoniae M2; test: microbe, parasite or virus in culture; type: cell-based; details: 37° C., 24 h, read-out: Minimum Inhibitory Concentration, MIC
MRSA 2152 = test: Antibacterial studies in vivo, survival of mice infected with MRSA 2152; details: dose mg/kg: ciprofloxacin 20, 3: 30, 7: 40, 21: 50, 33: 25, 70: 70; for Survival rate (%) (life prolongation rate): (survival days of test group − blank group)/blank group ×100%, MRSA 2152 mice, tail vein; for Survival: mice inoculated intraperitoneally with MRSA 2152, test compound by tail vein, repeated after six hours, saline 1.3 days
Clostridium perfringens = test: microbe, parasite or virus in culture; type: cell-based; details: 24 h, read-out: Minimum Inhibitory Concentration, MIC
Bacillus subtilis 82 = test: microbe, parasite or virus in culture; type: cell-based; details: 37° C., 24 h, read-out: Minimum Inhibitory Concentration, MIC
Clostridium tetani = test: microbe, parasite or virus in culture; type: cell-based; details: 24 h
green Streptococcus 1009 = test: microbe, parasite or virus in culture; type: cell-based; details: 37° C., 24 h, read-out: Minimum Inhibitory Concentration, MIC
[14] = tested on: Enterococcus faecalis 1513 (VRE); test: microbe, parasite or virus in culture; type: cell-based; details: 24 h, read-out: Minimum Inhibitory Concentration, MIC
[15] = tested on: Streptococcus agalactiae B; test: microbe, parasite or virus in culture; type: cell-based; details: 37° C., 24 h, read-out: Minimum Inhibitory Concentration, MIC
[16] = tested on: Enterococcus faecalis 29212; test: microbe, parasite or virus in culture; type: cell-based; details: 37° C., 24 h, read-out: Minimum Inhibitory Concentration, MIC
[17] = tested on: Streptococcus pneumoniae 62; test: microbe, parasite or virus in culture; type: cell-based; details: 37° C., 24 h, read-out: Minimum Inhibitory Concentration, MIC
[18] = tested on: Enterococcus faecalis F2518 (VRE); test: microbe, parasite or virus in culture; type: cell-based; details: 24 h, read-out: Minimum Inhibitory Concentration, MIC
[19] = tested on: Staphylococcus aureus 703 (MRSA); test: microbe, parasite or virus in culture; type: cell-based; details: 24 h, read-out: Minimum Inhibitory Concentration, MIC
Bacillus anthracis 1 = test: microbe, parasite or virus in culture; type: cell-based; details: Bacillus anthracis, 1, 24 h, read-out: Minimum Inhibitory Concentration, MIC
[20] = tested on: Streptococcus bovis 10035; test: microbe, parasite or virus in culture; type: cell-based; details: Streptococcus equinus, 37° C., 24 h, read-out: Minimum Inhibitory Concentration, MIC
[21] = read-out: Minimum Inhibitory Concentration, MIC, Microorganism 29, Clostridium tetani, 37° C.
[22] = read-out: Minimum Inhibitory Concentration, MIC, Microorganism 30, Clostridium tetani (second line of that name), 37° C.

SMILES	MIC [1]	inhibition of growth (conclusion from MICs) (Gram-positive Bacteria)	MIC [2]	MIC (MIC broth microdilution)	MIC [3]	MIC [4]	MIC (Oral candidiasis)	MIC [5]	MIC (Pyogenic Streptococcus)	MIC [6]	MIC (Streptococcus 10342)	MIC [7]	MIC [8]	MIC [9]	MIC [10]	MIC (Bacillus subtilis 168)	MIC [11]	MIC (Bacillus cereus 246)	MIC [12]	MIC (Bacillus cereus 2)	further results
Cc1nn2c(=O)cc(-c3ccc(C(F)(F)F)cc3)[nH]c2c1-c1ccc(Cl)cc1Cl [Compound 7]	0.21 µM (≈ 0.092 µg/mL)	significantly inhibited the growth	0.3 µM (≈ 0.131 µg/mL)	36.5 µM (≈ 16 µg/mL)	2.5 µM (≈ 1.1 µg/mL)	0.32 µM (≈ 0.14 µg/mL)	35.6 µM (≈ 15.6 µg/mL)	0.61 µM (≈ 0.267 µg/mL)	2.5 µM (≈ 1.1 µg/mL)	1.25 µM (≈ 0.548 µg/mL)	0.25 µM (≈ 0.11 µg/mL)	0.55 µM (≈ 0.241 µg/mL)	0.63 µM (≈ 0.276 µg/mL)	71.2 µM (≈ 31.2 µg/mL)	2.5 µM (≈ 1.1 µg/mL)	0.22 µM (≈ 0.0964 µg/mL)	5 µM (≈ 2.19 µg/mL)	1.25 µM (≈ 0.548 µg/mL)	5 µM (≈ 2.19 µg/mL)	0.63 µM (≈ 0.276 µg/mL)	MIC [13]: 2.5 µM (≈ 1.1 µg/mL); Survival rate (%) (life prolongation rate) (MRSA 2152): 330.7%; Survival (MRSA 2152): 5.6 days; MIC (Clostridium perfringens): 50.2 µM (≈ 22 µg/mL); MIC (Bacillus subtilis 82): 0.02 µM (≈ 0.00876 µg/mL); MIC (Clostridium tetani; [21]): 50.3 µM (≈ 22 µg/mL); MIC (Clostridium tetani; [22]): 22.1 µM (≈ 9.69 µg/mL); MIC (green Streptococcus 1009): 1.35 µM (≈ 0.592 µg/mL); MIC [14]: 0.65 µM (≈ 0.285 µg/mL); MIC [15]: 0.22 µM (≈ 0.0964 µg/mL); MIC [16]: 0.31 µM (≈ 0.136 µg/mL); MIC [17]: 0.19 µM (≈ 0.0833 µg/mL); MIC [18]: 0.23 µM (≈ 0.101 µg/mL); MIC [19]: 2.5 µM (≈ 1.1 µg/mL); MIC (Bacillus anthracis 1): 80.3 µM (≈ 35.2 µg/mL); MIC [20]: 2.25 µM (≈ 0.986 µg/mL)
Cc1c(-c2ccc(C(F)(F)F)cc2)[nH]c2c(-c3ccc(Cl)cc3Cl)c(C3CC3)nn2c1=O [Compound 21]	1.33 µM (≈ 0.636 µg/mL)	significantly inhibited the growth	0.11 µM (≈ 0.0526 µg/mL)	33.7 µM (≈ 16.1 µg/mL)	10.5 µM (≈ 5.02 µg/mL)	0.28 µM (≈ 0.134 µg/mL)	88.5 µM (≈ 42.3 µg/mL)	12.3 µM (≈ 5.88 µg/mL)	1.23 µM (≈ 0.588 µg/mL)	1.25 µM (≈ 0.598 µg/mL)	1.35 µM (≈ 0.646 µg/mL)	0.3 µM (≈ 0.143 µg/mL)	0.33 µM (≈ 0.158 µg/mL)	30.3 µM (≈ 14.5 µg/mL)	0.35 µM (≈ 0.167 µg/mL)	0.46 µM (≈ 0.22 µg/mL)	0.6 µM (≈ 0.287 µg/mL)	1.55 µM (≈ 0.741 µg/mL)	0.23 µM (≈ 0.11 µg/mL)	0.36 µM (≈ 0.172 µg/mL)	MIC [13]: 0.02 µM (≈ 0.00957 µg/mL); Survival rate (%) (life prolongation rate) (MRSA 2152): 133.2%; Survival (MRSA 2152): 3.2 days; MIC (Clostridium perfringens): 32 µM (≈ 15.3 µg/mL); MIC (Bacillus subtilis 82): 0.68 µM (≈ 0.325 µg/mL); MIC (Clostridium tetani; [21]): 30.2 µM (≈ 14.4 µg/mL); MIC (Clostridium tetani; [22]): 80.3 µM (≈ 38.4 µg/mL); MIC (green Streptococcus 1009): 1.55 µM (≈ 0.741 µg/mL); MIC [14]: 2.3 µM (≈ 1.1 µg/mL); MIC [15]: 0.55 µM (≈ 0.263 µg/mL); MIC [16]: 0.32 µM (≈ 0.153 µg/mL); MIC [17]: 0.25 µM (≈ 0.12 µg/mL); MIC [18]: 2.5 µM (≈ 1.2 µg/mL); MIC [19]: 0.42 µM (≈ 0.201 µg/mL); MIC (Bacillus anthracis 1): 13.5 µM (≈ 6.46 µg/mL); MIC [20]: 1.25 µM (≈ 0.598 µg/mL)
